Laboratory results reported in the NIST ThermoML archive (doi:10.1016/j.jct.2012.03.034).
Numbers after ± are expanded uncertainties.

Assays:
[1] = 298.15 K, 101.33 kPa, Liquid; for speed of sound: Linear variable-path acoustic interferometer; for mass density: Vibrating tube method; for viscosity: dual vibrating plate viscometer, AandD Co. Ltd Model SV-10
[2] = xn = mol fraction of the nth substance listed; conditions: 101 kPa, Liquid, x2 = 0; for speed of sound: Linear variable-path acoustic interferometer; for mass density: Vibrating tube method; for viscosity: dual vibrating plate viscometer, AandD Co. Ltd Model SV-10

Compound	speed of sound [1]	mass density [1]	viscosity [1]	speed of sound ([2]; 298.15 K)	mass density ([2]; 298.15 K)	viscosity ([2]; 298.15 K)	speed of sound ([2]; 303.15 K)	mass density ([2]; 303.15 K)	viscosity ([2]; 303.15 K)	speed of sound ([2]; 308.15 K)	mass density ([2]; 308.15 K)	viscosity ([2]; 308.15 K)	speed of sound ([2]; 313.15 K)	mass density ([2]; 313.15 K)	viscosity ([2]; 313.15 K)
CN1CCCC1=O [N-methylpyrrolidone]	1552 ± 2 m/s	1025.9 ± 0.31 kg/m3	1.66 ± 0.03 mPa·s												
CN1CCCC1=O [N-methylpyrrolidone] + CC(=O)[O-].CC[NH2+]CC				1572 ± 2 m/s	1025.9 ± 0.3 kg/m3	1.66 ± 0.03 mPa·s	1552 ± 2 m/s	1023.74 ± 0.3 kg/m3	1.49 ± 0.03 mPa·s	1528 ± 2 m/s	1019.25 ± 0.3 kg/m3	1.39 ± 0.03 mPa·s	1520 ± 2 m/s	1014.74 ± 0.3 kg/m3	1.31 ± 0.03 mPa·s
CC(=O)O.CCN(CC)CC [triethylammonium acetate]	1840 ± 2 m/s	1015.86 ± 0.32 kg/m3	24.14 ± 0.39 mPa·s												
CN1CCCC1=O [N-methylpyrrolidone] + CC[NH2+]CC.O=S(=O)([O-])O				1572 ± 2 m/s	1025.9 ± 0.3 kg/m3	1.66 ± 0.03 mPa·s	1552 ± 2 m/s	1023.74 ± 0.3 kg/m3	1.49 ± 0.03 mPa·s	1528 ± 2 m/s	1019.25 ± 0.3 kg/m3	1.39 ± 0.03 mPa·s	1520 ± 2 m/s	1014.74 ± 0.3 kg/m3	1.31 ± 0.03 mPa·s
CC(=O)[O-].CC[NH2+]CC [diethylammonium acetate]	1608 ± 2 m/s	1021.41 ± 0.32 kg/m3	16.36 ± 0.23 mPa·s												
CC[NH+](CC)CC.O=S(=O)([O-])O [triethylammonium hydrogen sulfate]	1874 ± 2 m/s	1142.89 ± 0.45 kg/m3	235 ± 13 mPa·s												
CN1CCCC1=O [N-methylpyrrolidone] + CC(=O)O.CCN(CC)CC				1572 ± 2 m/s	1025.9 ± 0.3 kg/m3	1.66 ± 0.03 mPa·s	1552 ± 2 m/s	1023.74 ± 0.3 kg/m3	1.49 ± 0.03 mPa·s	1528 ± 2 m/s	1019.25 ± 0.3 kg/m3	1.39 ± 0.03 mPa·s	1520 ± 2 m/s	1014.74 ± 0.3 kg/m3	1.31 ± 0.03 mPa·s
CN1CCCC1=O [N-methylpyrrolidone] + CC[NH+](CC)CC.O=S(=O)([O-])O				1572 ± 2 m/s	1025.9 ± 0.3 kg/m3		1552 ± 2 m/s	1023.74 ± 0.3 kg/m3		1528 ± 2 m/s	1019.25 ± 0.3 kg/m3	1.39 ± 0.03 mPa·s	1520 ± 2 m/s	1014.74 ± 0.3 kg/m3	1.31 ± 0.03 mPa·s
CC[NH2+]CC.O=S(=O)([O-])O [diethylammonium hydrogen sulfate]	1432 ± 2 m/s	1283.95 ± 0.61 kg/m3	34.1 ± 0.63 mPa·s												
